What was measured:
[1] = Biodistribution of 99mTc complexes in mice; type: in vivo, Balb/c mice
Text: A series of derivatives incorporating carboxyl and phenolate donor groups (1-6) were synthesised by literature method and their radiolabelling characteristic and biological behaviour evaluated. Initial work involved an investigation of radiochemical properties of the ^99m Tc complexes of the ligands and their biodistribution in rats and mice (see Tables 1-6 and 8-12).
A typical method of radiolabelling of the chelator was achieved by dissolving the chelator in a basic solution of saline. The pH was then adjusted to approx. 6 with HCl. Excess stannous chloride was added to the resultant solution followed by one equivalent volume of sodium ^99m TcO4 (10-50 mCi/ml). Final concentration of the chelator was approx. 1 mg/ml. The efficacy of labelling was determined by ITLC-SG. For each product only one main radiochemical species was observed. Each complex was diluted to 15 μCi/100 μl with saline. […] (See FIGS. 1A and 1B).

[2] = Biodistribution of 67Ga complexes in mice; type: in vivo, balb/c mice
Experimental: To ligand (50 μL, 10 mg/mL, 0.2 M NaOAc, […]) was added ^67 Ga citrate (18.5 MBq) and the resultant mixture diluted to 1 mL (0.2 M NaOAc, pH 7). The pH was adjusted to 12 with 1 M NaOH (20 μL) and heated at 40° C. for 40 min. The final volume was adjusted (to 5 mL) with saline and sterilised by filtering through a 0.22 μm filter.
Each animal was injected via tail vein with ^67 Ga complex (100 μL, ~3.7×10^5 Bq). Animals were sacrificed at various time intervals (5 animals per time point/6 time points). Data are illustrated in FIG. 26-30 and in Tables 13-17.
Each ^67 Ga-ligand complex has been evaluated in balb/c mice. […] (see FIG. 26-30).

For `CC(C)(C)c1ccc(O)c(NC(=O)CN(CCN(CC(=O)O)CC(=O)Nc2cc(C(C)(C)C)ccc2O)CC(=O)O)c1` [Compound 4], the “biodistribution GIT” value ([1]; 1 min) was 3.96 % Injected dose, the biodistribution bladder ([1]; 1 min) was 0.06 % Injected dose and the biodistribution blood ([1]; 1 min) was 34.01 % Injected dose. The biodistribution bone ([1]; 1 min) was 6.4 % Injected dose, the biodistribution heart ([1]; 1 min) was 0.6 % Injected dose and the biodistribution kidney ([1]; 1 min) was 7.83 % Injected dose. It also gave a biodistribution liver ([1]; 1 min) of 31.82 % Injected dose, a biodistribution lungs ([1]; 1 min) of 1.29 % Injected dose and a biodistribution muscle ([1]; 1 min) of 11.85 % Injected dose. For the same compound, the biodistribution skin ([1]; 1 min) was 8.94 % Injected dose, the biodistribution spleen ([1]; 1 min) was 0.21 % Injected dose and the biodistribution stomach ([1]; 1 min) was 0.52 % Injected dose. The biodistribution tail ([1]; 1 min) was 4.62 % Injected dose, the biodistribution urine ([1]; 1 min) was 0 % Injected dose and the “biodistribution GIT” value ([1]; 3 min) was 8.34 % Injected dose. The biodistribution bladder ([1]; 3 min) was 0.09 % Injected dose, the biodistribution blood ([1]; 3 min) was 12.06 % Injected dose and the biodistribution bone ([1]; 3 min) was 2.5 % Injected dose. The biodistribution heart ([1]; 3 min) was 0.22 % Injected dose, the biodistribution kidney ([1]; 3 min) was 6.27 % Injected dose and the biodistribution liver ([1]; 3 min) was 40.23 % Injected dose. For the same compound, the biodistribution lungs ([1]; 3 min) was 0.56 % Injected dose, the biodistribution muscle ([1]; 3 min) was 9.92 % Injected dose and the biodistribution skin ([1]; 3 min) was 9.02 % Injected dose. The biodistribution spleen ([1]; 3 min) was 0.12 % Injected dose, the biodistribution stomach ([1]; 3 min) was 0.61 % Injected dose and the biodistribution tail ([1]; 3 min) was 2.02 % Injected dose. The biodistribution urine ([1]; 3 min) was 0.84 % Injected dose, the “biodistribution GIT” value ([1]; 5 min) was 13.7 % Injected dose and the biodistribution bladder ([1]; 5 min) was 0.04 % Injected dose. It also gave a biodistribution blood ([1]; 5 min) of 7.87 % Injected dose, a biodistribution bone ([1]; 5 min) of 2.84 % Injected dose and a biodistribution heart ([1]; 5 min) of 0.16 % Injected dose. It also gave a biodistribution kidney ([1]; 5 min) of 4.18 % Injected dose, a biodistribution liver ([1]; 5 min) of 30.24 % Injected dose and a biodistribution lungs ([1]; 5 min) of 0.68 % Injected dose. The biodistribution muscle ([1]; 5 min) was 7.77 % Injected dose, the biodistribution skin ([1]; 5 min) was 8.67 % Injected dose and the biodistribution spleen ([1]; 5 min) was 0.1 % Injected dose. It also gave a biodistribution stomach ([1]; 5 min) of 3.96 % Injected dose, a biodistribution tail ([1]; 5 min) of 4.63 % Injected dose and a biodistribution urine ([1]; 5 min) of 1.55 % Injected dose. For the same compound, the “biodistribution GIT” value ([1]; 10 min) was 33.63 % Injected dose, the biodistribution bladder ([1]; 10 min) was 0.17 % Injected dose and the biodistribution blood ([1]; 10 min) was 5.04 % Injected dose. For the same compound, the biodistribution bone ([1]; 10 min) was 2.08 % Injected dose, the biodistribution heart ([1]; 10 min) was 0.13 % Injected dose and the biodistribution kidney ([1]; 10 min) was 3.57 % Injected dose. The biodistribution liver ([1]; 10 min) was 21.19 % Injected dose, the biodistribution lungs ([1]; 10 min) was 0.52 % Injected dose and the biodistribution muscle ([1]; 10 min) was 4.95 % Injected dose. It also gave a biodistribution skin ([1]; 10 min) of 7.3 % Injected dose, a biodistribution spleen ([1]; 10 min) of 0.07 % Injected dose and a biodistribution stomach ([1]; 10 min) of 0.7 % Injected dose. The biodistribution tail ([1]; 10 min) was 3.58 % Injected dose, the biodistribution urine ([1]; 10 min) was 4.27 % Injected dose and the “biodistribution GIT” value ([1]; 30 min) was 39.97 % Injected dose. For the same compound, the biodistribution bladder ([1]; 30 min) was 0.08 % Injected dose, the biodistribution blood ([1]; 30 min) was 3.88 % Injected dose and the biodistribution bone ([1]; 30 min) was 1.67 % Injected dose. It also gave a biodistribution heart ([1]; 30 min) of 0.05 % Injected dose, a biodistribution kidney ([1]; 30 min) of 3.67 % Injected dose and a biodistribution liver ([1]; 30 min) of 12.48 % Injected dose. It also gave a biodistribution lungs ([1]; 30 min) of 0.26 % Injected dose, a biodistribution muscle ([1]; 30 min) of 3.35 % Injected dose and a biodistribution skin ([1]; 30 min) of 4 % Injected dose. It also gave a biodistribution spleen ([1]; 30 min) of 0.06 % Injected dose, a biodistribution stomach ([1]; 30 min) of 4.84 % Injected dose and a biodistribution tail ([1]; 30 min) of 1.91 % Injected dose. It also gave a biodistribution urine ([1]; 30 min) of 3.21 % Injected dose, a biodistribution bone ([2]; 1 min) of 3.20 % ID and a biodistribution kidney ([2]; 1 min) of 6.91 % ID. The biodistribution liver ([2]; 1 min) was 39.06 % ID, the biodistribution muscle ([2]; 1 min) was 11.34 % ID and the biodistribution skin ([2]; 1 min) was 11.94 % ID. It also gave a biodistribution spleen ([2]; 1 min) of 0.15 % ID, a biodistribution bone ([2]; 3 min) of 1.31 % ID and a biodistribution kidney ([2]; 3 min) of 2.12 % ID. For the same compound, the biodistribution liver ([2]; 3 min) was 43.23 % ID, the biodistribution muscle ([2]; 3 min) was 5.08 % ID and the biodistribution skin ([2]; 3 min) was 8.12 % ID. For the same compound, the biodistribution spleen ([2]; 3 min) was 0.04 % ID, the biodistribution bone ([2]; 5 min) was 0.98 % ID and the biodistribution kidney ([2]; 5 min) was 1.59 % ID. The biodistribution liver ([2]; 5 min) was 39.61 % ID, the biodistribution muscle ([2]; 5 min) was 4.29 % ID and the biodistribution skin ([2]; 5 min) was 8.22 % ID. For the same compound, the biodistribution spleen ([2]; 5 min) was 0.03 % ID, the biodistribution bone ([2]; 10 min) was 0.20 % ID and the biodistribution kidney ([2]; 10 min) was 0.43 % ID. For the same compound, the biodistribution liver ([2]; 10 min) was 8.29 % ID, the biodistribution muscle ([2]; 10 min) was 0.65 % ID and the biodistribution skin ([2]; 10 min) was 2.92 % ID. The biodistribution spleen ([2]; 10 min) was 0.00 % ID, the biodistribution bone ([2]; 30 min) was 0.13 % ID and the biodistribution kidney ([2]; 30 min) was 0.17 % ID. The biodistribution liver ([2]; 30 min) was 1.06 % ID, the biodistribution muscle ([2]; 30 min) was 0.32 % ID and the biodistribution skin ([2]; 30 min) was 0.18 % ID. It also gave a biodistribution spleen ([2]; 30 min) of 0.00 % ID, a biodistribution kidney ([2]; 120 min) of 0.07 % ID and a biodistribution liver ([2]; 120 min) of 0.29 % ID. It also gave a biodistribution muscle ([2]; 120 min) of 0.21 % ID, a biodistribution skin ([2]; 120 min) of 0.15 % ID and a biodistribution spleen ([2]; 120 min) of 0.01 % ID.

— patent US5807535A, “Metal complexes of hydroxyaryl containing aminocarboxylic acid chelating agents” (Australian Nuclear Science & Technology Organisation, priority 1992, dated 1998)
